Results: patent US20080171704A1, “Composition and method for treating diabetes” (priority 2001, published 2008)
Where a SMILES comes first, the peptide text is derived from it.

Columns and labels:
beagle dogs = test: 34-day dog repeat-dose toxicology study; type: in vivo
Procedure: FIG. 8. Effects of daily injection of INGAP Peptide to dogs for 34 days on the area of cells in the pancreas that becomes positive for insulin by immunohistochemical staining. Data are mean ±SEM. The percentage of cross-sectional area stained for insulin was determined with an Olympus microscope (150×) and image analysis software (Image Pro Plus Version 4.0, Media Cybernetics).
A repeat-dose toxicology study was conducted in beagle dogs for 34 days with daily IM injection of INGAP Peptide at 0, 0.5, 1.5, and 10 mg/kg/day. Pancreatic tissue was obtained for quantitation of β-cell mass by immunohistochemistry from animals sacrificed on Day 34, at termination of treatment, and from recovery animals sacrificed 25 days after termination of treatment. Pancreatic β-cell mass was increased following INGAP Peptide administration (see FIG. 8).

normal hamsters = test: Islet formation in normal hamsters; type: in vivo, Syrian golden Hamsters; settings: 5 mg/kg IP daily
Procedure: FIG. 2. Increase in pancreatic endocrine cell mass with INGAP Peptide. Normal Syrian golden Hamsters were treated with saline (control) or INGAP Peptide IP for either 10 days or 30 days. The number of islets/ml was determined with a computer-aided Morphometric system employing Image-Pro Plus software.
INGAP Peptide was studied for its effects on islet formation in normal hamsters. INGAP Peptide 5 mg/kg (25 mg/m^2) was given IP daily for 4 weeks and β-cell mass was assessed at 10 days and at 30 days. […] The islet neogenesis effect was manifested by production of more insulin and an increase in the number of islets in the pancreata. Newly formed β-cells appeared in the wall of, and budding from, pancreatic ducts. These insulin-positive cells resulted from ductal epithelial cell differentiation and islet cell growth, and their appearance was proportional to the dose and duration of treatment with INGAP Peptide. Over longer periods of treatment, these cells migrated away from the duct and formed islets in the parenchyma of the pancreas. After 10 consecutive days of INGAP Peptide administration, there was a 30% increase in islet number, and by 30 days there was a doubling of the number of islets in the tissues, consistent with the prior observations using ilotropin, INGAP, and cellophane wrapping in animal models.

[1] = Stability of bulk INGAP Peptide (lyophilized powder); type: physicochemical
Procedure: Stability is determined by comparing various parameters including, but not limited to, degree of purity, total percentage of impurities, percentage of individual impurities (as determined by HPLC or other suitable quantitative method), appearance, and water content of the sample. An HPLC method can be used to determine any increase in the levels of degradation products relative to the level of INGAP Peptide. INGAP Peptide samples (both solution and lyophilized powder) are stored at various temperatures, in the presence or absence of humidity, and in light or dark vials. Degradation during different storage conditions can lead to an increase in impurities and decrease in INGAP Peptide content. It is desirable that the sample preparation is more than 80% pure, preferably more than 90% pure, more preferably more than 95%, and most preferably more than 97% pure.
Purity of the INGAP Peptide is maintained under these conditions and degradation products are lower than the acceptable levels.

CD-1 mice = test: 31-day mouse repeat-dose toxicology study; type: in vivo
Procedure: (§1) FIG. 7. Immunopositive tissue area in normal mouse following treatment with INGAP Peptide for 31 days. Data are mean ±SEM. The percentage of cross-sectional area stained for insulin was determined with an Olympus microscope (150×) and image analysis software (Image Pro Plus Version 4.0, Media Cybernetics).
(§2) A repeat-dose toxicology study was conducted in mice with 31 days of daily injection of INGAP Peptide at 0, 2, 20, and 100 mg/kg/day. In this study, four treatment groups of 10 males and 10 females each were allocated, as were two groups of recovery animals (5 males and 5 females). Blood was collected at termination and necropsies were performed for gross and microscopic observations. Clinical pathology and serum levels were evaluated in approximately half the animals in each group. Selected organs (brain, adrenal, heart, kidney, liver, lung, pancreas, and spleen) were weighed and relative organ weights were calculated. A section of the pancreas was removed and frozen in liquid nitrogen for evaluation for insulin content and sections of pancreas tissue were submitted for independent microscopic examination. Recovery animals were terminated 28 days after cessation of dosing. Various parameters for further study as well as potentially drug-related abnormal findings were evaluated to determine the reproducibility and potential clinical significance.

[2] = 31-day mouse repeat-dose toxicology study; type: in vivo, mice; settings: mouse, in vivo; CD-1 mice, 31-day dosing; read-out: no adverse effect level (NOAEL)
Procedure: as §1, §2

[3] = system: C57BL/6J mice made diabetic with STZ; test: In vivo efficacy study in streptozotocin-diabetic mice
Procedure: FIG. 3. Time course of blood glucose following injection of INGAP Peptide […] twice daily or saline for 39 days to C57BL/6J mice rendered diabetic using a regimen of multiple injections of low-dose streptozotocin. Blood glucose levels were measured every three days.
C57BL/6J mice were made diabetic with STZ (35 mg/kg/day×5 days) and divided in INGAP Peptide-treated (250 ? g twice daily) and saline control groups of 4 animals each. […] The appearance of glucagon producing cells is noteworthy since glucagon plays a major role in the defense against hypoglycemia. This feature of the INGAP Peptide induced islet neogenesis could help to reverse the impaired counter regulatory control of hypoglycemia associated with the overzealous treatment of diabetes. Hypoglycemia was not observed in any of the INGAP Peptide-treated animals. In saline-treated control animals, no new islet formation was observed.

patients = test: Human clinical studies in type I or type II diabetes mellitus; type: in vivo; settings: versus placebo
Procedure: Doses are often based on the results of efficacy and safety studies in animals. Two doses of INGAP Peptide, 7.5 mg (0.125 mg/kg, or 4.625 mg/m^2 for a 60 kg patient) and 120 mg ([…], or 74 mg/m^2 for a 60 kg patient) are exemplified in the treatment of type I or type II diabetes mellitus. The following parameters are evaluated to determine efficacy of INGAP Peptide treatment. • 1. A reduction of fasting glucose levels by >35 mg/dl while the total insulin dose is maintained. • 2. A reduction of insulin dose by 25% with fasting glucose levels maintained in the normal range as determined by the American Diabetes Association (ADA) criteria. • 3. An increase in fasting C-peptide >1 ng/ml is obtained. An increase in C-peptide of >2 ng/ml in response to Sustacal® (Boost®) is obtained.
Each patient is randomized to receive one single intramuscular injection of INGAP Peptide. After evaluating efficacy and safety data, patients could be given further INGAP Peptide injections as deemed appropriate by the physician.
Stimulated C-peptide tests are performed in the morning after an overnight fasting period of at least 10 hours. The tests are performed only if the fasting glucose is between 80 and 250 mg/dl. Patients can take their diabetes medications the evening before, but should not take them the morning of the test until the test is completed. Blood samples for the determination of C-peptide are drawn immediately before Boost® ingestion, and at 0.5, 2, and 4 hours post-ingestion. Boost® is administered through ingestion. Patients are considered insulin deficient if their fasting C-peptide is <1.0 ng/ml and their maximum stimulated C-peptide value is <2.0 ng/ml.

[4] = system: ARIP cells, a rat pancreatic duct cell line; test: ARIP cell BrdU proliferation bioassay; type: cell-based; settings: FIG. 1
Procedure: To confirm that the synthetic molecule is bioactive, a bioassay may be used to confirm the activity. ARIP cells, a rat pancreatic duct cell line, obtained from ATCC (Manassas, Va.) are used in the assay. Cells are plated into a 96-well culture plate at 10,000 cells/well, and cultured for 24 hours in Dulbecco's […] Essential Medium (DMEM) containing 10% fetal bovine serum. After 24 hours, the medium is replaced with DMEM without serum. […] After 21 hours, the medium is supplemented with bromodeoxyuridine (BrdU) labeling solution from a BrdU cell proliferation ELISA kit (Roche Molecular Biochemicals) and cultured for a further 3 hours. At 24 hours the cells are dried at 60° C. for 60 minutes, fixed and denatured. They are exposed to BrdU antibody for 90 minutes and developed for 15 minutes, all according to kit instructions. BrdU labeling is quantitated on a Wallac Victor 1420 Multilabel Counter. Results are compared against a standard curve of cells grown on the same culture plate, seeded at densities from 100 to 20,000 cells per well.

SMILES: CC[C@H](C)[C@H](N)C(=O)NCC(=O)N[C@@H](CC(C)C)C(=O)N[C@@H](Cc1c[nH]cn1)C(=O)N[C@@H](CC(=O)O)C(=O)N1CCC[C@H]1C(=O)N[C@@H](CO)C(=O)N[C@@H](Cc1c[nH]cn1)C(=O)NCC(=O)N[C@H](C(=O)N[C@@H](CC(C)C)C(=O)N1CCC[C@H]1C(=O)N[C@@H](CC(N)=O)C(=O)NCC(=O)N[C@@H](CO)C(=O)O)[C@@H](C)O [INGAP Peptide, NH2-Ile-Gly-Leu-His-Asp-Pro-Ser-His-Gly-Thr-Leu-Pro-Asn-Gly-Ser-COOH] (H-IGLHDPSHGTLPNGS-OH)
- pancreatic tissue section review (beagle dogs; 34-day daily IM dosing): no changes such as edema, inflammatory cell infiltration, necrosis or atrophy
- pancreatic β-cell mass (beagle dogs; daily IM 0.5, 1.5, 10 mg/kg/day for 34 days, immunohistochemistry, FIG. 8): increased
- number of islets compared with placebo-treated animals (normal hamsters; FIG. 2): significant increase
- increase in islet number (normal hamsters; after 10 consecutive days): 30%
- number of islets in the tissues (normal hamsters; by 30 days): doubling
- degradation on further storage ([1]; lyophilized powder, storage up to six-months): does not cause any noticeable degradation
- stability of lyophilized powder ([1]; various storage conditions): stable under various storage conditions
- insulin-positive tissue area (CD-1 mice; 31 days, FIG. 7): increase in insulin-positive tissue area
- number of small islets (CD-1 mice; duct-associated and amongst acinar tissue): increase in the number of small islets
- extramedullary hematopoiesis in the spleen (CD-1 mice; mouse, in vivo): seen in one male animal at the high dose
- injection site irritation (CD-1 mice; mouse, in vivo): observed in males and females with increased frequency at the highest dose
- microscopic pancreas findings (CD-1 mice; mouse, in vivo): No microscopic evidence of inflammatory cell infiltration, edema, necrosis or atrophy
- NOAEL [2]: > 100 mg/kg
- blood glucose concentrations ([3]; 250 µg twice daily for 39 days, all four treated animals, FIG. 3): restored to normal
- transdifferentiation of ductal cells (PDX-1 expression) ([3]; FIG. 5): induced transdifferentiation of ductal cells
- histopathologic evaluation of islets ([3]; FIGS. 4 and 6): both the presence of normal-appearing islets and areas of new islet formation
- hypoglycemia ([3]; any of the treated animals): not observed
- durability of the effect after dosing stopped ([3]; dosing stopped after 39 days, study terminated at 48 days): 48 days
- islet inflammation ([3]; versus saline-treated STZ-diabetic animals, FIG. 6): markedly reduced
- sugar tolerance (patients; intramuscular injection): improved sugar tolerance
- C-peptide level in response to Boost® (patients): an increase in C-peptide level in response to Boost®
- fasting C-peptide level (patients): an increase in fasting C-peptide level
- fasting glucose level (patients): a reduction in fasting glucose level
- insulin dose required (patients): a reduction in insulin does required
- increase in cell count compared with controls ([4]; 0.1 µg/ml INGAP Peptide, 24 h, BrdU ELISA): ~1.6 fold
- cell number, dose dependence [4]: dose dependant increase in cell number
